We go through 3 molecules from US9840494B2, “Quinazoline derivative” (Tianjin Hemay Oncology Pharmaceutical Co., Ltd., priority 2013, dated 2017).

Counter-ions that a name gives are not always drawn.

A short description of data set [1]: MTD assay, single administration to mice. To be noted: ICR male mice, tail intravenous administration, 14 days. It is filed as in vivo. The source says:
MTD Assay for a Single […] to Mice
1. Experimental Animals: ICR male mice, weighing 19-22 g, were purchased from Beijing Vital River Laboratory Animal Technology Co., Ltd., Animal License No. SCXK (Beijing) 2007-0001
2. Experimental Scheme: 21 mice were divided into nine groups: groups I, IV and VI referred to one mouse per group, groups II, V and IIX referred to four mice per group, and group III, VI and IX referred to two mice per group. Compound 4, compound 2 and compound 12 were dissolved in water for injection. Groups I-III were subjected to tail intravenous administration of compound 4 (N-[4-(3-chloro-4-fluorophenylamino)-7-(2-methoxyethoxy)quinazolin-6yl]-2-[piperidin-4-ylidene]acetamide dihydrochloride) at doses of 100 mg/kg, 150 mg/kg, and 200 mg/kg, respectively. The animal response and the weight change were observed after administration, and these animals were sacrificed after 14 days for anatomical observation. Groups IV-VI were subjected to tail intravenous administration of compound 2 (N-[4-(3-chloro-4-fluorophenylamino)-7-(2-methoxyethoxy)quinazolin-6yl]-2-[1-(2-methoxyethyl)piperidin-4-ylidene]acetamide dihydrochloride) at doses of 100 mg/kg, 150 mg/kg, and 200 mg/kg, respectively. The animal response and the weight change were observed after administration, and these animals were sacrificed after 14 days for anatomical observation. Groups VII-IX were subjected to tail intravenous administration of compound 12 (N-[4-(3-ethynylphenylamino-7-(2-ethoxy)quinazolin-6yl]-2-[1-methylpiperidin-4-ylidene]acetamide dihydrochloride) at doses of 100 mg/kg, 150 mg/kg, and 200 mg/kg, respectively. The animal response and the weight change were observed after administration, and these animals were sacrificed after 14 days for anatomical observation.

Data set [2] can be described thus: Preliminary pharmacokinetic studies. It is filed as in vivo.
For data set [3] the following is noted: FDA application records; cited from earlier work.
For data set [4] the following is noted: Li D et al., Oncogene 2008; cited from earlier work.

With `C#Cc1cccc(Nc2ncnc3cc(OCC)c(NC(=O)C=C4CCN(C)CC4)cc23)c1` [Compound 12, N-[4-(3-ethynylphenylamino-7-(2-ethoxy)quinazolin-6-yl]-2-[1-methylpiperidin-4-ylidene]acetamidedihydrochloride], in data set [1] (100 mg/kg, 1 animal), the Mortality was 0% and the “Number of Deaths” value stood at 0. Also, in data set [1] (150 mg/kg, 4 animals), the Mortality is listed as 50% and the “Number of Deaths” value turned out to be 2. Also, in data set [1] (200 mg/kg, 2 animals), the Mortality is 100% and the “Number of Deaths” value came out at 2. In addition, in data set [2], the “distribution (gathering in the gastrointestinal tract)” value was “gathered in the gastrointestinal tract” and the oral bioavailability result was “very low”.

On to `COCCOc1cc2ncnc(Nc3ccc(F)c(Cl)c3)c2cc1NC(=O)C=C1CCNCC1` [Compound 4, N-[4-(3-chloro-4-fluorophenylamino)-7-(2-methoxyethoxy)quinazolin-6yl]-2-[piperidin-4-ylidene]acetamide dihydrochloride], for which the Mortality in data set [1] (100 mg/kg, 1 animal) is reported as 0%; in data set [1] (150 mg/kg, 4 animals), 0%; in data set [1] (200 mg/kg, 2 animals), 50%. Further, the “Number of Deaths” value stood at 0 in data set [1] (100 mg/kg, 1 animal); 0 in data set [1] (150 mg/kg, 4 animals); 1 in data set [1] (200 mg/kg, 2 animals). In data set [2], the “distribution (gathering in the gastrointestinal tract)” value was “gathered in the gastrointestinal tract”. Further, the oral bioavailability result in data set [2] is “very low”.

Regarding `CN(C)C/C=C/C(=O)Nc1cc2c(Nc3ccc(F)c(Cl)c3)ncnc2cc1O[C@H]1CCOC1` [Afatinib], the bioavailability in data set [3] is listed as 11.175%. The MTD in data set [4] was 30 mg/kg.
